Results reported in patent publication US10028961B2, “Therapeutically active compounds and their methods of use” (AGIOS PHARMACEUTICALS, INC., priority 2013, dated 2018).

Key:
IDH2 R140Q = IDH2 R140Q (Homo sapiens (Human), UniProt P48735, R140Q); experiment: In vitro assay for IDH2m R140Q inhibitors, cofactor depletion assay; type: biochemical; conditions: IDH2 R140Q enzyme
Procedure, shortened: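 Remaining cofactor measured fluorimetrically: diaphorase/resazurin Stop Mix […], halting the reaction. Before that, mutant enzyme and compound sat 1 h at RT, then substrate mix (4 μM NADPH, 1.6 mM α-KG) was added for 16 h at RT.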

[1] = target: IDH1-R132 homodimer enzyme (R132H) (Homo sapiens (Human), UniProt O75874, R132H); experiment: In vitro assay IDH1-R132H homodimer, NADPH depletion assay; type: biochemical
Sequence of IDH1-R132 homodimer enzyme (R132H) (O75874 whole entry R132H): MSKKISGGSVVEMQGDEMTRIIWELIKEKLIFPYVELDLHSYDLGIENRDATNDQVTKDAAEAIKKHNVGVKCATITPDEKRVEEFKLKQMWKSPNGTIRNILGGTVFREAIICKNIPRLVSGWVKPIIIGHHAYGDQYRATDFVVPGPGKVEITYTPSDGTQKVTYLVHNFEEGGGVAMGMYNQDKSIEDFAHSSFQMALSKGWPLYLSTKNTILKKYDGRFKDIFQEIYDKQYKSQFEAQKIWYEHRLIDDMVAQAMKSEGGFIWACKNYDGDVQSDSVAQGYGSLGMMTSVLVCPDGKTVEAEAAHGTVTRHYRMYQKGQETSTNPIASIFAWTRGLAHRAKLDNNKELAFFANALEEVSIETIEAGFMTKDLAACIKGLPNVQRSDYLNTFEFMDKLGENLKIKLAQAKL
Description: (§1) The following describes the experimental procedures that can be used to obtain data on columns 3 and 6 of Table 4.
(§2) A test compound is prepared as 10 mM stock in DMSO and diluted to 50× final concentration in DMSO, for a 50 μl reaction mixture. IDH enzyme activity converting alpha-ketoglutarate to 2-hydroxyglutaric acid is measured using a NADPH depletion assay. In the assay the remaining cofactor is measured at the end of the reaction with the addition of a catalytic excess of diaphorase and resazurin, to generate a fluorescent signal in proportion to the amount of NADPH remaining. […] The reaction is started with the addition of 10 μl of Substrate Mix ([…], 5 mM alpha-ketoglutarate, in Assay Buffer) and the mixture is incubated for 90 minutes at room temperature.

IDH1 R132C = IDH1 R132C (Homo sapiens (Human), UniProt O75874, R132C); experiment: In vitro assay IDH1 R132C homodimer, NADPH depletion assay; type: biochemical
Sequence of IDH1 R132C (O75874 whole entry R132C): as the sequence (O75874 whole entry R132H) above, with H132C counted along it
Description: as §1, §2
The concentration of NADPH and alpha-ketoglutarate in the Substrate Buffer is 20 μM and 1 mM, respectively.

[2] = target: IDH1 wt/IDH1 R132H heterodimer (Homo sapiens (Human), UniProt O75874, R132H); experiment: In vitro assay for IDH1m R132H inhibitors, IDH1 wt/IDH1 R132H heterodimer, NADPH depletion (diaphorase/resazurin); type: biochemical; conditions: IDH1 wt/R132H heterodimer, NADPH/NADP, not saturated; read-out: IDH1 wt/R132H NADPH/NADP IC50 not saturated
Sequence of IDH1 wt/IDH1 R132H heterodimer (O75874 whole entry R132H): as the sequence (O75874 whole entry R132H) above
Sequence of IDH1 wt/IDH1 R132H heterodimer (O75874 whole entry, stated change not applied): as the sequence (O75874 whole entry R132H) above, with H132R counted along it
Procedure, shortened: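 Purified IDH1wt-his/IDH1R132H-flag heterodimer (sf9 co-expression) pre-incubated 1 hr at room temperature with compound and NADPH before α-KG addition. Remaining NADPH read by diaphorase/resazurin conversion to fluorescent resorufin, 5 min at 25° C. Compounds diluted 1:50 from DMSO; IC50 determined.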

[3] = system: U87MG pLVX-IDH2 R140Q-neo cells; experiment: U87MG pLVX-IDH2 R140Q-neo cell based assay, 2-HG by LC-MS; conditions: Homo sapiens, U-87 MG
HT1080 cells = experiment: Cellular assay for IDH1m R132C inhibitors, 2-HG by LC-MS in HT1080 cells; type: cell-based; conditions: Homo sapiens, HT-1080
Procedure, shortened: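 HT1080 cells at 5000 cells/well were treated with compound (0.2% DMSO final). After 48 h, 2-HG in the medium was measured by LC-MS. Viability was read by CellTiter-Glo luminescence at 72 h.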

[4] = target: IDH1-R132H homodimer enzyme (Homo sapiens (Human), UniProt O75874, R132H); experiment: In vitro assay IDH1-R132H homodimer, NADPH depletion assay with NADPH/NADP preincubation; type: biochemical; conditions: 5 μM NADPH and 37.5 μM NADP
Sequence of IDH1-R132H homodimer enzyme (O75874 whole entry R132H): as the sequence (O75874 whole entry R132H) above
Procedure, shortened: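 Conversion of alpha-ketoglutarate to 2-hydroxyglutarate tracked by NADPH depletion. Reaction started with 5 mM alpha-ketoglutarate plus NADPH substrate mix (50 μl total), 60 min at room temperature. Leftover NADPH quantified via diaphorase/resazurin fluorescence.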

Sequence of IDH2 R140Q (P48735 40-452 R140Q): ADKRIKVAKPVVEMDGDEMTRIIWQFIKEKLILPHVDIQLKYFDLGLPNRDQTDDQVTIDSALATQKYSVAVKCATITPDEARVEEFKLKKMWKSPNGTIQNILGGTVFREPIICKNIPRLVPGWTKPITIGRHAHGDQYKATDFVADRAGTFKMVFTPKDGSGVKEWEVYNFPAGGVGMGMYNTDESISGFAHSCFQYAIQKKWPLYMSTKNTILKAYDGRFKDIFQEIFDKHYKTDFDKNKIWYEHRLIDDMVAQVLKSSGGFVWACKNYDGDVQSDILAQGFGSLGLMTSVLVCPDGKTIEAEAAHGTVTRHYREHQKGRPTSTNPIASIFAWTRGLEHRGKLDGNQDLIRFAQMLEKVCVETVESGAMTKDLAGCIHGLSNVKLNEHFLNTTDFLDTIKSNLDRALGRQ

SMILES | IC50 (IDH2 R140Q) | IC50 [1] | IC50 (IDH1 R132C) | further results
CC(Nc1nc(N[C@H](C)C2CC2)nc(-c2cccc(C(F)(F)F)n2)n1)c1ccccc1 (single isomer, unassigned) [Compound 20] | < 50 nM | 50 to 100 nM | 50 to 100 nM | IC50 [2]: < 50 nM
C[C@@H](Nc1nc(NCC(C)(C)O)nc(-c2cccc(C(F)(F)F)n2)n1)C1CC1 (stereo in doubt) [Compound 10, 1-(4-(1-cyclopropylethylamino)-6-(6-(trifluoromethyl)pyridin-2-yl)-1,3,5-triazin-2-ylamino)-2-methylpropan-2-ol] | 50 to 100 nM | > 1000 nM | > 1000 nM | –
FC(F)(F)c1cccc(-c2nc(NCC3CC3)nc(NCC3CC3)n2)n1 [Compound 1] | < 50 nM | > 1000 nM | > 1000 nM | IC50 [3]: < 50 nM
CC(C)(C)Nc1nc(NC(C)(C)C)nc(-c2cccc(C(F)(F)F)n2)n1 [Compound 4] | < 50 nM | 50 to 100 nM | 50 to 100 nM | IC50 (HT1080 cells): 50 to 100 nM
FC(F)(F)c1cccc(-c2nc(NCC3CCC3)nc(NCC3CCC3)n2)n1 [Compound 7] | < 50 nM | 100 to 1000 nM | > 1000 nM | –
COc1ccc(F)c(-c2nc(N[C@H](C)C3CC3)nc(N[C@H](C)C3CC3)n2)c1 [Compound 8] | 50 to 100 nM | – | > 1000 nM | IDH1 R132H IC50 [1]: No Fit
FC(F)(F)c1cccc(-c2nc(NC3CCC3)nc(NC3CCC3)n2)n1 [Compound 9] | < 50 nM | 50 to 100 nM | 100 to 1000 nM | –
CC(O)CNc1nc(N[C@H](C)C2CC2)nc(-c2cccc(C(F)(F)F)n2)n1 (stereo partly drawn) [Compound 12, 1-(4-((R)-1-cyclopropylethylamino)-6-(6-(trifluoromethyl)pyridin-2-yl)-1,3,5-triazin-2-ylamino)propan-2-ol] | 50 to 100 nM | > 1000 nM | > 1000 nM | –
CC(C)C(C)Nc1nc(NC(C)C(C)C)nc(-c2cccc(C(F)(F)F)n2)n1 (stereo not shown) [Compound 13] | – | < 50 nM | 50 to 100 nM | IC50 (HT1080 cells): < 50 nM
CC(O)CNc1nc(NCC(C)O)nc(-c2cccc(C(F)(F)F)n2)n1 (stereo not shown) [Compound 14] | > 1000 nM | > 1000 nM | > 1000 nM | –
C[C@@H](Nc1nc(N[C@H](C)C2CC2)nc(-c2cccc(CO)c2)n1)C1CC1 [Compound 16] | < 50 nM | > 1000 nM | > 1000 nM | –
CC(C)[C@H](C)Nc1nc(N[C@@H](C)C(C)C)nc(-c2cccc(C(F)(F)F)n2)n1 [Compound 17] | – | 50 to 100 nM | 50 to 100 nM | IC50 (HT1080 cells): < 50 nM
CC(C)[C@@H](C)Nc1nc(N[C@H](C)C(C)C)nc(-c2cccc(C(F)(F)F)n2)n1 [Compound 18] | – | < 50 nM | 50 to 100 nM | IC50 (HT1080 cells): 50 to 100 nM
C[C@@H](Nc1nc(N[C@H](C)C2CCC2)nc(-c2cccc(C(F)(F)F)n2)n1)C1CCC1 [Compound 19] | – | 50 to 100 nM | 50 to 100 nM | IC50 (HT1080 cells): 50 to 100 nM
C[C@@H](Nc1nc(NCc2ccccc2)nc(-c2cccc(C(F)(F)F)n2)n1)C1CC1 [Compound 21] | < 50 nM | > 1000 nM | > 1000 nM | –
C[C@@H](Nc1nc(N[C@H](C)C2CC2)nc(-c2cccc(C(F)(F)F)n2)n1)c1ccccc1 [Compound 22] | < 50 nM | 50 to 100 nM | 100 to 1000 nM | –
CC(Nc1nc(N[C@H](C)C2CC2)nc(-c2cccc(C(F)(F)F)n2)n1)c1ccccn1 (stereo partly drawn) [Compound 25, N^2-((R)-1-cyclopropylethyl)-N^4-(1-(pyridin-2-yl)ethyl)-6-(6-(trifluoromethyl)pyridin-2-yl)-1,3,5-triazine-2,4-diamine] | – | > 1000 nM | > 1000 nM | –
C[C@H](Nc1nc(N[C@H](C)c2ccccc2)nc(-c2cccc(C(F)(F)F)n2)n1)c1ccccc1 [Compound 26] | < 50 nM | 100 to 1000 nM | > 1000 nM | –
CC(Nc1nc(N[C@H](C)C2CC2)nc(-c2cccc(C(F)(F)F)n2)n1)c1cccc(C(F)(F)F)c1 (stereo partly shown) [Compound 27] | – | 50 to 100 nM | 100 to 1000 nM | –

More lines, main results first:

IC50 (IDH2 R140Q) | IC50 [1] | IC50 (IDH1 R132C) | SMILES | further results
– | 50 to 100 nM | 50 to 100 nM | CC(Nc1nc(N[C@H](C)C2CC2)nc(-c2cccc(C(F)(F)F)n2)n1)c1cccc(F)c1 (stereo partly shown) [Compound 28] | IC50 (HT1080 cells): 50 to 100 nM; IC50 [2]: < 50 nM
– | 100 to 1000 nM | > 1000 nM | C[C@@H](Nc1nc(NC(=O)c2ccccc2)nc(-c2cccc(C(F)(F)F)n2)n1)C1CC1 [Compound 29] | –
50 to 100 nM | 50 to 100 nM | 100 to 1000 nM | C[C@@H](Nc1nc(NC2(c3ccccc3)CC2)nc(-c2cccc(C(F)(F)F)n2)n1)C1CC1 [Compound 30] | –
– | > 1000 nM | > 1000 nM | COc1ccc(F)c(-c2nc(NC(C)C)nc(NC(C)(C)C#N)n2)c1 [Compound 32] | –
– | < 50 nM | 50 to 100 nM | C[C@H](Nc1nc(N[C@@H](C)C2CC2)nc(-c2cccc(C(F)(F)F)n2)n1)C1CC1 [Compound 33] | IC50 (HT1080 cells): < 50 nM
– | < 50 nM | 50 to 100 nM | C[C@H](Nc1nc(N[C@H](C)C2CC2)nc(-c2cccc(C(F)(F)F)n2)n1)C1CC1 [Compound 34] | IC50 (HT1080 cells): < 50 nM
– | > 1000 nM | > 1000 nM | CC(C)Nc1nc(NC(C)(C)C#N)nc(-c2cc(O)ccc2F)n1 [Compound 35] | –
– | < 50 nM | 50 to 100 nM | FC(F)(F)c1cccc(-c2nc(NC3CC4CC4C3)nc(NC3CC4CC4C3)n2)n1 (stereo not shown) [Compound 36] | IC50 [2]: < 50 nM
– | 50 to 100 nM | > 1000 nM | C[C@@H](Nc1nc(NC(C)(C)C#N)nc(-c2cccc(C(F)(F)F)n2)n1)C1CC1 [Compound 37] | –
– | 50 to 100 nM | 100 to 1000 nM | C[C@@H](Nc1nc(NC2CCOC2)nc(-c2cccc(C(F)(F)F)n2)n1)C1CC1 (stereo partly shown) [Compound 38] | –
– | < 50 nM | 50 to 100 nM | CCCC(C)Nc1nc(N[C@H](C)C2CC2)nc(-c2cccc(C(F)(F)F)n2)n1 (stereo partly shown) [Compound 39] | IC50 (HT1080 cells): 50 to 100 nM
– | 50 to 100 nM | 50 to 100 nM | CC(C#N)Nc1nc(N[C@H](C)C2CC2)nc(-c2cccc(C(F)(F)F)n2)n1 (stereo partly shown) [Compound 40] | –
– | 50 to 100 nM | > 1000 nM | FC1(F)CCC(Nc2nc(NC3CCC(F)(F)CC3)nc(-c3cccc(C(F)(F)F)n3)n2)CC1 [Compound 41] | –
– | 50 to 100 nM | 100 to 1000 nM | C[C@@H](Nc1nc(N[C@H]2CCCC[C@@H]2O)nc(-c2cccc(C(F)(F)F)n2)n1)C1CC1 [Compound 42] | –
– | 100 to 1000 nM | > 1000 nM | C[C@@H](Nc1nc(N[C@H]2CCC[C@H]2O)nc(-c2cccc(C(F)(F)F)n2)n1)C1CC1 [Compound 43] | –
– | 100 to 1000 nM | > 1000 nM | COCC(C)Nc1nc(N[C@H](C)C2CC2)nc(-c2cccc(C(F)(F)F)n2)n1 (stereo partly shown) [Compound 44] | –
– | < 50 nM | 50 to 100 nM | C[C@@H](Nc1nc(N[C@H](C)C2CC2)nc(-c2cccc(Cl)n2)n1)C1CC1 [Compound 45] | –
– | > 1000 nM | > 1000 nM | CCN(CC)c1nc(N[C@H](C)C2CC2)nc(-c2cccc(Cl)n2)n1 [Compound 46] | –
– | > 1000 nM | – | C[C@@H](Nc1nc(N[C@H](C)C2CC2)nc(-c2cccc(C(F)(F)F)n2)n1)C(=O)O [Compound 47] | IDH1 R132C IC50 (IDH1 R132C): No Fit
– | > 1000 nM | – | C[C@@H](Nc1nc(N[C@H](C)C2CC2)nc(-c2cccc(C(F)(F)F)n2)n1)C(=O)N(C)C [Compound 48] | IDH1 R132C IC50 (IDH1 R132C): No Fit
– | > 1000 nM | > 1000 nM | CC(C)(CO)Nc1nc(Nc2ccnc(C(C)(F)F)c2)nc(-c2cccc(C(F)(F)F)n2)n1 [Compound 49] | –
– | < 50 nM | 50 to 100 nM | C[C@@H](Nc1nc(NC2CCC(F)(F)CC2)nc(-c2cccc(C(F)(F)F)n2)n1)C1CC1 [Compound 50] | IC50 [2]: < 50 nM
– | > 1000 nM | > 1000 nM | C[C@@H](Nc1nc(N[C@H](C)C2CC2)nc(-c2cccc(N3CCC3)n2)n1)C1CC1 [Compound 51] | –
– | > 1000 nM | > 1000 nM | CC(C)CNc1nc(NC(C)(C)C#N)nc(-c2cc(O)ccc2F)n1 [Compound 86] | IC50 [2]: 50 to 100 nM
– | 100 to 1000 nM | > 1000 nM | C[C@@H](Nc1cc(NC(C)(C)C)nc(-c2cccc(C(F)(F)F)n2)n1)C1CC1 [Compound 417] | IC50 [4]: 100 to 1000 nM
